Details: Vibrating tube method; for specific volume: Gas; for mass density: Liquid

F/C=C\C(F)(F)F [(Z)-1,3,3,3-tetrafluoro-1-propene]
Details	mass density [kg/m3]	specific volume [m3/kg]
328.15 K, 202.5 kPa	–	0.111
328.15 K, 209.8 kPa	–	0.107
328.15 K, 232.5 kPa	–	0.095
328.15 K, 370.9 kPa	–	0.057
330.15 K, 287.2 kPa	–	0.076
333.15 K, 90.7 kPa	–	0.26
333.15 K, 126.2 kPa	–	0.185
333.15 K, 206.1 kPa	–	0.111
333.15 K, 213.5 kPa	–	0.107
333.15 K, 236.7 kPa	–	0.096
333.15 K, 378.4 kPa	–	0.057
333.15 K, 30992 kPa	1237.9	–
333.15 K, 31993 kPa	1240.4	–
333.16 K, 3769 kPa	1141.2	–
333.16 K, 4787 kPa	1146.4	–
333.16 K, 5795 kPa	1151.4	–
333.16 K, 6804 kPa	1156.2	–
333.16 K, 7816 kPa	1160.8	–
333.16 K, 8825 kPa	1165.2	–
333.16 K, 9828 kPa	1169.5	–
333.16 K, 10837 kPa	1173.6	–
333.16 K, 11848 kPa	1177.7	–
333.16 K, 12859 kPa	1181.6	–
333.16 K, 13868 kPa	1185.4	–
333.16 K, 15876 kPa	1192.7	–
333.16 K, 16881 kPa	1196.2	–
333.16 K, 17896 kPa	1199.7	–
333.16 K, 18911 kPa	1203	–
333.16 K, 19925 kPa	1206.3	–
333.16 K, 20935 kPa	1209.5	–
333.16 K, 21937 kPa	1212.6	–
333.16 K, 23957 kPa	1218.6	–
333.16 K, 24963 kPa	1221.5	–
333.16 K, 25970 kPa	1224.4	–
333.16 K, 26975 kPa	1227.2	–
333.16 K, 27976 kPa	1229.9	–
333.16 K, 28983 kPa	1232.6	–
333.16 K, 29987 kPa	1235.2	–
333.16 K, 32999 kPa	1243	–
333.16 K, 34003 kPa	1245.5	–
333.17 K, 574 kPa	1123.1	–
333.17 K, 754 kPa	1124.2	–
333.17 K, 1756 kPa	1130.2	–
333.17 K, 2756 kPa	1135.8	–
333.17 K, 14875 kPa	1189.1	–
333.17 K, 22950 kPa	1215.6	–
335.15 K, 292.6 kPa	–	0.077
338.15 K, 92.1 kPa	–	0.26
338.15 K, 128.2 kPa	–	0.185
338.15 K, 209.7 kPa	–	0.111
338.15 K, 217.2 kPa	–	0.107
338.15 K, 240.9 kPa	–	0.096
338.15 K, 385.9 kPa	–	0.057
340.15 K, 298 kPa	–	0.077
343.14 K, 680 kPa	1090.7	–
343.14 K, 761 kPa	1091.4	–
343.14 K, 1766 kPa	1098.6	–
343.14 K, 2771 kPa	1105.3	–
343.14 K, 3798 kPa	1111.8	–
343.14 K, 4828 kPa	1117.9	–
343.14 K, 5833 kPa	1123.5	–
343.14 K, 6839 kPa	1129	–
343.14 K, 7846 kPa	1134.2	–
343.14 K, 8850 kPa	1139.2	–
343.14 K, 9856 kPa	1144	–
343.14 K, 10867 kPa	1148.6	–
343.14 K, 11874 kPa	1153.1	–
343.14 K, 12884 kPa	1157.5	–
343.14 K, 13894 kPa	1161.7	–
343.14 K, 14898 kPa	1165.7	–
343.14 K, 15909 kPa	1169.7	–
343.14 K, 16918 kPa	1173.5	–
343.14 K, 17921 kPa	1177.2	–
343.14 K, 18924 kPa	1180.9	–
343.14 K, 19929 kPa	1184.4	–
343.14 K, 20931 kPa	1187.8	–
343.14 K, 21941 kPa	1191.3	–
343.14 K, 22943 kPa	1194.6	–
343.14 K, 24955 kPa	1201	–
343.14 K, 25963 kPa	1204	–
343.14 K, 26970 kPa	1207.1	–
343.14 K, 27977 kPa	1210	–
343.14 K, 28983 kPa	1212.9	–
343.14 K, 29990 kPa	1215.8	–
343.14 K, 30998 kPa	1218.7	–
343.14 K, 32004 kPa	1221.4	–
343.14 K, 34007 kPa	1226.7	–
343.15 K, 93.6 kPa	–	0.26
343.15 K, 130.3 kPa	–	0.185
343.15 K, 213.3 kPa	–	0.111
343.15 K, 220.9 kPa	–	0.107
343.15 K, 245.1 kPa	–	0.096
343.15 K, 393.2 kPa	–	0.057
343.15 K, 23946 kPa	1197.8	–
343.15 K, 33006 kPa	1224.1	–
345.15 K, 303.3 kPa	–	0.077
348.15 K, 95 kPa	–	0.26
348.15 K, 132.4 kPa	–	0.185
348.15 K, 216.8 kPa	–	0.111
348.15 K, 224.6 kPa	–	0.107
348.15 K, 249.2 kPa	–	0.096
348.15 K, 400.6 kPa	–	0.057
350.15 K, 308.6 kPa	–	0.077

From the NIST ThermoML archive (doi:10.1007/s10765-014-1730-1)
